Assay results as given in US12702689B2, “Anti-inflammatory compositions, and uses thereof” (P.L. THOMAS & CO., INC., priority 2022, dated 2026).

What was measured:
[1] = system: gut microbiome (Bifidobacterium); conditions: healthy mice; cited from earlier work
[2] = system: ovalbumin-induced allergic airway inflammation (lung); experiment: Lung tissue histology and scoring in OVA allergic airway model; type: in vivo, BALB/cJ female mice; conditions: OVA+AKBA mice, 100 mg/kg AKBA
Description: (§1) Allergic airway phenotype was induced by using an ovalbumin (OVA, hen egg) sensitization and challenge model as previously described with modifications [Beigelman, A. et al. Azithromycin attenuates airway inflammation in a noninfectious mouse model of allergic asthma. Chest 136, 498-506 (2009)]. Briefly (FIG. 1), two groups of mice (OVA control and OVA+AKBA) were sensitized with intraperitoneal ovalbumin plus alum on days 0 and 7, challenged for 3 days (day 14 to day 17) via nebulized OVA at 1% in PBS for 30 mins, and harvested 48 hr after final challenge. Supplementation groups (OVA+AKBA) were given 100 mg/kg of water soluble AKBA (pH 7) (PLT Health Solutions, Morristown, NJ, US) in autoclaved mouse water, via gavage, every other day for 10 days and then every day for the remainder of the experiment (9 days). OVA control and naïve mouse continued to receive normal autoclaved mouse water. Mice were weighted at the beginning and end of the experiment. Experiments involving AKBA were conducted twice, with the first group containing 5 mice per group and the second containing 15 mice per group (5 per group for naive). […]
Lung sectioning and staining was performed by the UConn Health Research Histology Core (Farmington, CT, US). […] Sections from the left lung were evaluated in their entirety and representative were images taken. […]

[3] = system: BAL leukocytes and eosinophils; experiment: BAL fluid total and differential cell counts in OVA allergic airway model; type: in vivo, BALB/cJ female mice; conditions: 100 mg/kg AKBA
[4] = Body weight change in OVA allergic airway model; type: in vivo, BALB/cJ female mice; conditions: OVA+AKBA mice, 100 mg/kg AKBA by gavage, beginning to end of experiment; mean±SD
Description: as §1, with “Eight-week-old BALB/cJ female mice were purchased from the Jackson Laboratory (Bar Harbor, ME, US) and housed in plastic cages with corncob bedding at the University of Connecticut Health (Farmington, CT.). Animal rooms maintained a 12-h light/dark cycle and were pathogen free. Mice were fed a 18% protein rodent diet (18.6% protein, 6.2% fat, 44.2% carbohydrate, 3.5% soluble fiber, 14.7% total fiber, 5.3% ash) purchased from Envigo (Indianapolis, IN, US) and supplied autoclaved water. Allergic” for “Allergic”, “water.” for “water. Mice were weighted at the beginning and end of the experiment. Experiments involving AKBA were conducted twice, with the first group containing 5 mice per group and the second containing 15 mice per group (5 per group for naive).”

[5] = system: airway reactivity to acetyl-β-methacholine chloride; experiment: Airway hyperresponsiveness: total respiratory system resistance (Rrs) to methacholine, flexiVent; type: in vivo, BALB/cJ female mice; conditions: for total respiratory system resistance (Rrs) in response to methacholine: OVA+AKBA mice
Description: Allergic airway phenotype was induced by using an ovalbumin (OVA, hen egg) sensitization and challenge model as previously described with modifications [Beigelman, A. et al. Azithromycin attenuates airway inflammation in a noninfectious mouse model of allergic asthma. Chest 136, 498-506 (2009)]. Briefly (FIG. 1), two groups of mice (OVA control and OVA+AKBA) were sensitized with intraperitoneal ovalbumin plus alum on days 0 and 7, challenged for 3 days (day 14 to day 17) via nebulized OVA at 1% in PBS for 30 mins, and harvested 48 hr after final challenge. Supplementation groups (OVA+AKBA) were given 100 mg/kg of water soluble AKBA (pH 7) (PLT Health Solutions, Morristown, NJ, US) in autoclaved mouse water, via gavage, every other day for 10 days and then every day for the remainder of the experiment (9 days). OVA control and naïve mouse continued to receive normal autoclaved mouse water. Mice were weighted at the beginning and end of the experiment. Experiments involving AKBA were conducted twice, with the first group containing 5 mice per group and the second containing 15 mice per group (5 per group for naive). Experiment procedures were identical, and results were pooled for n=20 (n=5 for naive). Animal protocol 102063-0522 was approved by the University of Connecticut Health IACUC board.
Airway reactivity was assessed based on total respiratory system resistance (Rrs) response to increasing doses (0-100 mg/ml) of acetyl-β-methacholine chloride (Sigma-Aldrich, St. Louis, MO). Mice were […] (150 mg/kg ketamine and 10 mg/kg xylazine), underwent tracheostomies and were mechanically ventilated using the flexiVent system (SCIREQ, Montreal, CA). Airway reactivity was determined by assessing forced oscillatory mechanics every 10 s for 4 min following each methacholine challenge.

CC(=O)O[C@@H]1CC[C@@]2(C)[C@@H](CC[C@]3(C)[C@@H]2C(=O)C=C2[C@@H]4[C@@H](C)[C@H](C)CC[C@]4(C)CC[C@]23C)[C@@]1(C)C(=O)O [AKBA, 3-O-acetyl-11-keto-b-boswellic acid]
relative abundances of Bifidobacterium [1]: increases | histology score: inflammation and airway smooth muscle remodeling ([2]; score 0-3, blinded, p=0.1823 vs OVA control): 2.0±0.49 | histology score: mucus production ([2]; score 0-3, p=0.0278 vs OVA control): 2.0±0.4 | BAL total leukocyte counts lower versus OVA control group ([3]; Mann-Whitney p=0.0002): 46.69% | BAL total leukocyte counts higher than naïve control ([3]; Mann-Whitney p=0.0212): 60.38% | percent eosinophil in BAL ([3]; OVA+AKBA mice): 31.4% | absolute number of eosinophils in BAL ([3]; OVA+AKBA mice, mean±SD): 17317.95±5552.67 eosinophil/mL | total average weight change, % of starting weight [4]: −2.32±4.19% | total respiratory system resistance (Rrs) in response to methacholine ([5]; methacholine 12.5 mg, p=0.02 vs OVA control): 2.38±0.55 | total respiratory system resistance (Rrs) in response to methacholine ([5]; methacholine 25 mg, p=0.04 vs OVA control): 3.56±1.25 | difference in Rrs between OVA control and OVA+AKBA ([5]; higher methacholine concentrations (above 25 mg)): No significant difference | difference in Rrs between all three groups ([5]; methacholine 0 mg/mL, ANOVA p=0.341): No significant difference
